Test results from ChEMBL document CHEMBL5370592, “Synthesis and Structure-Activity Relationships of a New Class of Oxadiazoles Targeting DprE1 as Antitubercular Agents” (ACS Med Chem Lett, 2023).
Converted amounts (≈) assume the structure as drawn. The source made the active and inactive calls. The calls are words filed in the database; no cut-off is given here.

What was measured:
[1] = target: T1, Decaprenylphosphoryl-beta-D-ribose oxidase (Mycobacterium tuberculosis (strain ATCC 25618 / H37Rv)) (UniProt P9WJF1); experiment: Inhibition of DprE1-mediated cell wall synthesis in Mycobacterium tuberculosis H37Rv transfected with PiniB-LUX reporter assessed as induction of reporter gene expression incubated for 12 days by bioluminescence analysis; details: time 12.0 day
T1 sequence (whole entry): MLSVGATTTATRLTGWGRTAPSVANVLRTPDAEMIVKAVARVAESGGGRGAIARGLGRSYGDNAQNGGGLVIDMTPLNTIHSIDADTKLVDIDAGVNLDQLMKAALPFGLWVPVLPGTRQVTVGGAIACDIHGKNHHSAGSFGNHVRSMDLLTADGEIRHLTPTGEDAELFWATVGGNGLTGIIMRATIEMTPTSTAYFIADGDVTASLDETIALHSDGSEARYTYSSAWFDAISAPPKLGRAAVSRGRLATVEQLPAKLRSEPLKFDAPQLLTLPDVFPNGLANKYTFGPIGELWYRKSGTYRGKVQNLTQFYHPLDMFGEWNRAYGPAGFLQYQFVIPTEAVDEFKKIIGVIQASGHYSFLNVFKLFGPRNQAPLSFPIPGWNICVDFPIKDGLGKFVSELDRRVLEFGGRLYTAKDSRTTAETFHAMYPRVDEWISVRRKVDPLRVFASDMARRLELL

[2] = tested on: Mycobacterium tuberculosis; experiment: Antitubercular activity against Mycobacterium tuberculosis NIH_G12 assessed as inhibition of bacterial growth incubated for 2 weeks; type: functional; details: NIH_G12, 336 h
[3] = tested on: Mycobacterium tuberculosis; experiment: Antitubercular activity against Mycobacterium tuberculosis infected in mouse J774 cells assessed as decrease in colony forming unit enumeration on solid medium at 5XMIC measured after 7 days; type: functional, organism-based; details: time 7.0 day
[4] = tested on: Mycobacterium tuberculosis; experiment: Antitubercular activity against Mycobacterium tuberculosis K09b00DS assessed as inhibition of bacterial growth incubated for 2 weeks; type: functional; details: 336 h
[5] = tested on: Mycobacterium tuberculosis; experiment: Antitubercular activity against Mycobacterium tuberculosis H37Rv ATCC 27294 assessed as inhibition of bacterial growth incubated for 2 weeks; type: functional; details: H37Rv ATCC 27294, 336 h
[6] = tested on: Mycobacterium tuberculosis; experiment: Antitubercular activity against Mycobacterium tuberculosis K07b00DS assessed as inhibition of bacterial growth incubated for 2 weeks; type: functional; details: 336 h
[7] = tested on: Mycobacterium tuberculosis; experiment: Antitubercular activity against Mycobacterium tuberculosis H37Rv ATCC 27294 assessed as inhibition of bacterial growth cultured in Middlebrook 7H9/ADC/Tween 80 medium for 2 weeks; type: functional; details: H37Rv ATCC 27294, 336 h
[8] = tested on: Mycobacterium tuberculosis; experiment: Antitubercular activity against Mycobacterium tuberculosis K04b00DS assessed as inhibition of bacterial growth incubated for 2 weeks; type: functional; details: 336 h
[9] = tested on: Mycobacterium tuberculosis; experiment: Antitubercular activity against Mycobacterium tuberculosis H37Rv ATCC 27294 assessed as inhibition of bacterial growth cultured in Middlebrook 7H9/ADC/Tween 80 with cydC::aph medium for 2 weeks; type: functional; details: H37Rv ATCC 27294, 336 h
[10] = tested on: Mycobacterium tuberculosis; experiment: Antitubercular activity against Mycobacterium tuberculosis Erdman assessed as inhibition of bacterial growth incubated for 2 weeks; type: functional; details: 336 h
[11] = tested on: Mycobacterium tuberculosis; experiment: Antitubercular activity against Mycobacterium tuberculosis CDC1551 assessed as inhibition of bacterial growth incubated for 2 weeks; type: functional; details: CDC1551, 336 h
[12] = tested on: Mycobacterium tuberculosis; experiment: Antitubercular activity against Mycobacterium tuberculosis K12b00DS assessed as inhibition of bacterial growth incubated for 2 weeks; type: functional; details: 336 h
[13] = tested on: Mycobacterium tuberculosis; experiment: Antitubercular activity against Mycobacterium tuberculosis K15b00DS assessed as inhibition of bacterial growth incubated for 2 weeks; type: functional; details: 336 h
[14] = tested on: Mycobacterium tuberculosis; experiment: Induction of DNA damage in Mycobacterium tuberculosis H37Rv transfected with PradA-LUX reporter assessed as induction of radA reporter gene expression incubated for 12 days by bioluminescence analysis; type: functional, organism-based; details: time 12.0 day
[15] = tested on: Mycobacterium tuberculosis; experiment: Antitubercular activity against Mycobacterium tuberculosis K13b00DS assessed as inhibition of bacterial growth incubated for 2 weeks; type: functional; details: 336 h
[16] = tested on: Mycobacterium tuberculosis; experiment: Antitubercular activity against Mycobacterium tuberculosis clinical strain K5072429 assessed as inhibition of bacterial growth incubated for 2 weeks; type: functional; details: K5072429, 336 h
[17] = tested on: Mycobacterium tuberculosis; experiment: Antitubercular activity against Mycobacterium tuberculosis K16b00DS assessed as inhibition of bacterial growth incubated for 2 weeks; type: functional; details: 336 h
[18] = tested on: Mycobacterium tuberculosis; experiment: Antitubercular activity against Mycobacterium tuberculosis H37Rv ATCC 27294 assessed as inhibition of bacterial growth cultured in Middlebrook 7H9/DPPC/cholesterol/BSA/Tyloxapol medium for 2 weeks; type: functional; details: H37Rv ATCC 27294, 336 h
[19] = tested on: Mycobacterium tuberculosis; experiment: Induction of DNA damage in Mycobacterium tuberculosis H37Rv transfected with PrecA-LUX reporter assessed as induction of recA reporter gene expression incubated for 12 days by bioluminescence analysis; type: functional, organism-based; details: time 12.0 day
[20] = tested on: Mycobacterium tuberculosis; experiment: Antitubercular activity against Mycobacterium tuberculosis K14b00DS assessed as inhibition of bacterial growth incubated for 2 weeks; type: functional; details: 336 h
[21] = tested on: Mycobacterium tuberculosis; experiment: Antitubercular activity against Mycobacterium tuberculosis K35b00DS assessed as inhibition of bacterial growth incubated for 2 weeks; type: functional; details: 336 h
[22] = Cytotoxicity against human HepG2 cells assessed as reduction in cell viability incubated for 24 hrs in DMEM/10% FBS supplemented with glucose by CellTiter-Glo luminescent assay; type: toxicity, cell-based
[23] = tested on: Mycobacterium tuberculosis; experiment: Antitubercular activity against Mycobacterium tuberculosis K10b00DS assessed as inhibition of bacterial growth incubated for 2 weeks; type: functional; details: 336 h
[24] = tested on: Mycobacterium tuberculosis; experiment: Antitubercular activity against Mycobacterium tuberculosis H37Rv ATCC 27294 assessed as inhibition of bacterial growth cultured in Middlebrook 7H9/BSA/Tyloxapol with glucose medium for 2 weeks; type: functional; details: H37Rv ATCC 27294, 336 h
[25] = tested on: Mycobacterium tuberculosis; experiment: Antitubercular activity against Mycobacterium tuberculosis K17b00DS assessed as inhibition of bacterial growth incubated for 2 weeks; type: functional; details: 336 h
[26] = tested on: Mycobacterium tuberculosis; experiment: Antitubercular activity against Mycobacterium tuberculosis K05b00DS assessed as inhibition of bacterial growth incubated for 2 weeks; type: functional; details: 336 h
[27] = tested on: Mycobacterium tuberculosis; experiment: Antitubercular activity against Mycobacterium tuberculosis HN878 assessed as inhibition of bacterial growth incubated for 2 weeks; type: functional; details: HN878, 336 h
[28] = tested on: Mycobacterium tuberculosis; experiment: Antitubercular activity against Mycobacterium tuberculosis H37Rv ATCC 27294 assessed as inhibition of bacterial growth cultured in Middlebrook 7H9/glucose/casitone/tyloxapol medium for 2 weeks; type: functional; details: H37Rv ATCC 27294, 336 h
[29] = Cytotoxicity against human HepG2 cells assessed as reduction in cell viability incubated for 24 hrs in DMEM/10% FBS supplemented with galactose by CellTiter-Glo luminescent assay; type: toxicity, cell-based
[30] = tested on: Mycobacterium tuberculosis; experiment: Antitubercular activity against Mycobacterium tuberculosis H37RV ATCC 27294 assessed as inhibition of bacterial growth cultured in Middlebrook 7H9/cholesterol/BSA/Tyloxapol medium for 2 weeks; type: functional; details: H37Rv ATCC 27294, 336 h
[31] = tested on: Mycobacterium tuberculosis; experiment: Antitubercular activity against Mycobacterium tuberculosis K11b00DS assessed as inhibition of bacterial growth incubated for 2 weeks; type: functional; details: 336 h

O=C(C1CCN(c2nnc(-c3ccccc3)o2)CC1)N1CCC(Cc2ccccc2)CC1
inhibition [1]: Active | MIC [2]: 0.78 µM (≈ 0.336 µg/mL) | Activity [3]: Active | MIC [4]: 1.2 µM (≈ 0.517 µg/mL) | MIC [5]: 0.6 µM (≈ 0.258 µg/mL) | MIC [6]: 1.2 µM (≈ 0.517 µg/mL) | MIC [7]: 0.78 µM (≈ 0.336 µg/mL) | MIC [8]: 0.78 µM (≈ 0.336 µg/mL) | MIC [9]: 0.6 µM (≈ 0.258 µg/mL) | MIC [10]: 0.39 µM (≈ 0.168 µg/mL) | MIC [11]: 0.6 µM (≈ 0.258 µg/mL) | MIC [12]: 1.56 µM (≈ 0.672 µg/mL) | MIC [13]: 0.78 µM (≈ 0.336 µg/mL) | Activity [14]: inactive | MIC [15]: 1.2 µM (≈ 0.517 µg/mL) | MIC [16]: 2.3 µM (≈ 0.99 µg/mL) | MIC [17]: 0.78 µM (≈ 0.336 µg/mL) | MIC [18]: 0.6 µM (≈ 0.258 µg/mL) | Activity [19]: inactive | MIC [20]: 1.2 µM (≈ 0.517 µg/mL) | MIC [21]: 1.2 µM (≈ 0.517 µg/mL) | IC50 at 24 h [22]: > 50 µM | MIC [23]: 1.2 µM (≈ 0.517 µg/mL) | MIC [24]: 0.78 µM (≈ 0.336 µg/mL) | MIC [25]: 0.78 µM (≈ 0.336 µg/mL) | MIC [26]: 1.2 µM (≈ 0.517 µg/mL) | MIC [27]: 0.78 µM (≈ 0.336 µg/mL) | MIC [28]: 0.1 µM (≈ 0.0431 µg/mL) | IC50 at 24 h [29]: 37.5 µM | MIC [30]: 0.78 µM (≈ 0.336 µg/mL) | MIC [31]: 1.56 µM (≈ 0.672 µg/mL)
